Like-named read-outs stand apart in the source and are kept apart here.
How the values were obtained:
nucleoside hydrolase = target: T1, nucleoside hydrolase (Crithidia fasciculata, UniProt Q27546); test: Nucleoside hydrolase purified from C. fasciculata: substrate kinetics and inhibition (Table III); assay type: biochemical; conditions: for Km / Vmax: Table III; for Km / Vmax / Vmax /Km: compound as substrate; for Substrate or inhibitor concentration (substrate activity limit; nucleoside concentration in parentheses): Table III lower part
T1 construct: nucleoside hydrolase was purified from C. fasciculata as described above; endogenous in cells; host or cells: Crithidia fasciculata cells grown in a 300-liter fermenter
T1 sequence (Q27546 1-315): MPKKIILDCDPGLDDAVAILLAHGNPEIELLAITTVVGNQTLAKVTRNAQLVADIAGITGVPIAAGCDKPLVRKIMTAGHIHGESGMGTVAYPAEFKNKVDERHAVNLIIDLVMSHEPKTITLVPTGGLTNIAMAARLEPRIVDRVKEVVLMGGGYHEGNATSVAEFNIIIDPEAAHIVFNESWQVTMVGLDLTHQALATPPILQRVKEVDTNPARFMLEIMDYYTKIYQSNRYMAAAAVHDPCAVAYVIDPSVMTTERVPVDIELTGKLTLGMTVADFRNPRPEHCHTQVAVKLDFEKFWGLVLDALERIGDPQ
Method: The assay volumes were […]. The reaction was terminated by the addition of […] of 1.0 M HCl. […] The color was developed at 95° C. for 8 minutes and the optical absorbance measured at 450 nm. Enzymatic activity was expressed as millimoles of reducing sugar formed per minute per milligram of protein. During the initial stages of purification a modified assay which removes excess protein was used. Protein solutions of 1-5 ml were added to 100 ml of the assay mixture and incubated for the desired time. The assay was terminated by the addition of […] of 0.1 M ZnSO4. Excess Zn^2+ was removed by the addition of […] of 0.1 M NaOH. After centrifugation, 250 ml of supernatant was removed and assayed for reducing sugar. […] Arsenate readily replaces phosphate in the reaction and the product ribose 1-arsenate rapidly hydrolazes to release ribose which is detected in the reducing sugar assay.
At other pH values, a mixed buffer system was used which contained 30 mM each of acetate. Mes, Pipes, Hepes, Bicine, and Ches were adjusted to the desired pH with HCl or NaOH. The reaction was initiated with a small volume of enzyme and the increase in absorbance recorded at 280 nm.
Assay mixtures of 19 ml contained the desired concentration of inosine and inhibitor(s) together with approximately 3×10^4 cpm of radioactive inosine in 50 mM Hepes or triethanolamine buffer, pH 7.3. […] Samples of […] were removed at the appropriate intervals and spotted on polyethyleneimine cellulose thin layer plates which had been previously spotted with 4 ml of a solution containing 2.2 mM each of inosine and hypoxanthine.
Reaction mixtures were incubated for 5-27 hours and samples analyzed on a 7.8 mm×30 cm C18 -HPLC column eluted with 5 or 10% methanol in H2 O, 4 ml/minute. Samples were detected by the absorbance at 257 nm. Substrate activity with deoxyinosine was also measured at 500 MHz by NMR. […] Proton NMR spectra were collected in sets of eight scans over 15 minutes at room temperature.
Apparent inhibition constants (Ki(app)) were determined from the relationship shown in the following equation:
Vo /Vi +(inosine±Km (1+I/Ki(app))/(inosine+Km)
where Vo and Vi are the initial reaction rates without and with inhibitor, respectively. Km is the Michaelis constant for inosine, I is inhibitor concentration and Ki(app) is the apparent dissociation constant for inhibitor. In cases where the inhibitor is competitive with respect to substrate, Ki(app) is the dissociation constant for the enzyme-inhibitor complex.

IAG-nucleoside hydrolase = IAG-nucleoside hydrolase (Trypanosoma brucei, UniProt Q57ZL6); test: Inhibition of IAG-nucleoside hydrolase, initial rates
IAG-nucleoside hydrolase, sequence (Q57ZL6 entry or part of it): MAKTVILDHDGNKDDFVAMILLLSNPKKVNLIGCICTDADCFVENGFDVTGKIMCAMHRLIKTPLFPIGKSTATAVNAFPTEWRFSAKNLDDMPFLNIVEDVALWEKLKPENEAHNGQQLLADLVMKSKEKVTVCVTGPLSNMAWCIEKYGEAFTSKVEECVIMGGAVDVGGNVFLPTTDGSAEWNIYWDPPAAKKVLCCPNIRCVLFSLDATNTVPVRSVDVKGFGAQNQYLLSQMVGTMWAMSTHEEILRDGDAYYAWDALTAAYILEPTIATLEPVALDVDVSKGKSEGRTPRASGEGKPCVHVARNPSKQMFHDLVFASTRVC
Method: The enzyme was purified to apparent homogeneity as determined by denaturing polyacrylamide gel electrophoresis (Parkin, (1996) J. Biol. Chem. 271, 21713-21719). Some of the studies used the T. brucei brucei enzyme which was overexpressed in E. coli.
Enzyme Assays. Initial rate measurements were accomplished at 30° C. in reaction mixtures containing 50 mM potassium phosphate, pH 7.5, or 50 mM Hepes, pH 8.0, and nitrophenylribose or inosine as substrates (Mazella, et al. (1996) J. Am. Chem. Soc. 118, 2111-2112). At pH 7.5 the product p-nitrophenylate anion is present at a concentration which gives a millimolar extinction coefficient of 9.3 cm^-1 at 400 nm. Reaction mixtures with nitrophenylribose as substrate were initiated by the addition of enzyme, and product formation was monitored by continuous recording at 400 nm. With inosine as substrate, the conversion to hypoxanthine was monitored continuously at 280 nm (Parkin, et al. (1991) J. Biol. Chem. 266, 20658-20665). […] The remainder of the inhibitors were analyzed at one fixed substrate concentration and variable inhibitor concentrations. […] The remainder of the inhibition constants were characterized by titration of assay mixtures containing a fixed concentration of substrate with variable inhibitor concentrations. […] For Ki determination at a fixed substrate concentration, this approach assumes that substrate and inhibitor compete for the catalytic site.
Inhibitors. Iminoribitol inhibitor were synthesized and purified according to the methods of Furneaux, et al. (Tetrahedron (1997) in press), characterized by NMR, dissolved in H2 O and stored at -20° C.

IU-nucleoside hydrolase = target: T2, IU-nucleoside hydrolase (Crithidia fasciculata, UniProt Q27546, P2A); test: biochemical; assay type: biochemical, C. fasciculata; conditions: for Ki: KI IU-nucleoside hydrolase, Table V
T2 construct: contained the coding region for the enzyme; made in house; host or cells: E. coli BL21 (DE3)pLysS, pET3d plasmid
T2 sequence (Q27546 whole entry P2A): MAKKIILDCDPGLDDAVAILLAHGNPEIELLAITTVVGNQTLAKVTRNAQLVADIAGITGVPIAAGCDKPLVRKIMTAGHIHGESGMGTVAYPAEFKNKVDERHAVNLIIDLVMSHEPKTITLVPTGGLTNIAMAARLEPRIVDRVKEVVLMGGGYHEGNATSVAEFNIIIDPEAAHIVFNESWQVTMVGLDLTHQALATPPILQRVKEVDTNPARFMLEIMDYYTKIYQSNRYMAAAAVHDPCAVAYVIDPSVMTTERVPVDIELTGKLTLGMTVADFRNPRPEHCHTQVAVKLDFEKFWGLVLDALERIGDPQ
Source text: Enzymes. Inosine-uridine nucleoside hydrolase (IU-nucleoside hydrolase) was purified from extracts of E. coli strain BL21 (DE3)pLysS which contained the coding region for the enzyme isolated from C. fasciculata in a pET3d expression plasmid. The DNA coding for the enzyme was placed in the NcoI-BamHI site. This construct gives a Pro2Ala substitution which has no significant effect on the kinetic properties of the purified enzyme. The overexpressed enzyme was purified to apparent homogeneity as previously described (Gopaul, et al. (1996) Biochemistry 35, 5963-5970).
Enzyme Assays. Initial rate measurements were accomplished at 30° C. in reaction mixtures containing 50 mM potassium phosphate, pH 7.5, or 50 mM Hepes, pH 8.0, and nitrophenylribose or inosine as substrates (Mazella, et al. (1996) J. Am. Chem. Soc. 118, 2111-2112). At pH 7.5 the product p-nitrophenylate anion is present at a concentration which gives a millimolar extinction coefficient of 9.3 cm^-1 at 400 nm. Reaction mixtures with nitrophenylribose as substrate were initiated by the addition of enzyme, and product formation was monitored by continuous recording at 400 nm. With inosine as substrate, the conversion to hypoxanthine was monitored continuously at 280 nm (Parkin, et al. (1991) J. Biol. Chem. 266, 20658-20665). […] The remainder of the inhibitors were analyzed at one fixed substrate concentration and variable inhibitor concentrations. Inhibition constants for IAG-nucleoside hydrolase were established from full kinetic analysis with V and X as inhibitors. […] The remainder of the inhibition constants were characterized by titration of assay mixtures containing a fixed concentration of substrate with variable inhibitor concentrations. […] For Ki determination at a fixed substrate concentration, this approach assumes that substrate and inhibitor compete for the catalytic site.
Inhibitors. Iminoribitol inhibitor were synthesized and purified according to the methods of Furneaux, et al. (Tetrahedron (1997) in press), characterized by NMR, dissolved in H2 O and stored at -20° C. The compounds are enzymatically and chemically stable in H2 O and under conditions of the assay. IU-Nucleoside hydrolase is susceptible to slow-onset tight-binding inhibition under certain conditions (Horenstein & Schramm, (1993b) Biochemistry 32, 9917-9925, Boutellier, et al. (1994) Biochemistry, 33, 3994-4000). However, in the initial reaction rate conditions described here, only the rapidly reversible competition between substrate and inhibitor is being observed. Thus, the reported kinetic constants are dissociation constants which exclude slow-onset binding.

[1] = apparent constant, single inosine concentration near Km, three inhibitor concentrations, read-out: Ki(app)

Compound: OC[C@H]1O[C@@H](n2cnc3c(O)ncnc32)[C@H](O)[C@@H]1O [Inosine]
- Vmax /Km for inosine relative to adenosine (nucleoside hydrolase): 7.8 times
- Km (nucleoside hydrolase): 380 ± 30 µM
- Vmax (nucleoside hydrolase): 50 ± 2 µmol/min/mg
- Vmax /Km (nucleoside hydrolase): 7.6×10^-4 M^-1 S^-1

Compound: OC[C@H]1O[C@@H](n2cnc3cncnc32)[C@H](O)[C@@H]1O [Purine riboside]
- substrate activity (nucleoside hydrolase): poor substrate
- Vmax /Km (nucleoside hydrolase): 1.5×10^2 M^-1 S^-1

Compound: O=C[C@H](O)[C@H](O)[C@H](O)CO [Ribose]
- Ki (nucleoside hydrolase): 700 ± 100 µM
- inhibition pattern (nucleoside hydrolase; vs inosine): slope-linear, competitive patterns

Compound: Cc1cn([C@H]2C[C@H](O)[C@@H](CO)O2)c(=O)[nH]c1=O [Thymidine]
- Ki (nucleoside hydrolase): 7800 µM
- substrate activity (nucleoside hydrolase): no activity being detected
- Substrate or inhibitor concentration (substrate activity limit; nucleoside concentration in parentheses) (nucleoside hydrolase): < 0.0008
- apparent Vmax difference, 5-methyluridine vs thymidine (nucleoside hydrolase; effect of the 2'-hydroxyl): > 10^5

Compound: OC[C@H]1N[C@@H](c2ccc(F)cc2)[C@H](O)[C@@H]1O [VIII]
- Ki (IAG-nucleoside hydrolase): 205 ± 14 µM
- Km /KI IAG-nucleoside hydrolase (IAG-nucleoside hydrolase): 0.088
- Ki (IU-nucleoside hydrolase): 0.057 ± 0.005 µM
- inhibition pattern (IU-nucleoside hydrolase; minimum of four substrate and three inhibitor concentrations): slope-linear competitive inhibitors

Compound: OC[C@H]1N[C@@H](c2ccc(O)cc2)[C@H](O)[C@@H]1O [VII]
- Ki (IAG-nucleoside hydrolase): 35 ± 2 µM
- Km /KI IAG-nucleoside hydrolase (IAG-nucleoside hydrolase): 0.51
- Ki (IU-nucleoside hydrolase): 0.075 ± 0.004 µM

Compound: O=C(O)c1ccc([C@@H]2N[C@H](CO)[C@@H](O)[C@H]2O)cc1 [VI]
- Ki (IAG-nucleoside hydrolase): > 480 µM
- Km /KI IAG-nucleoside hydrolase (IAG-nucleoside hydrolase): < 0.04
- inhibition at highest concentration tested (IAG-nucleoside hydrolase; 80, 120, 120 and 160 μM II, III, IV and VI respectively, 75 μM inosine): NO inhibition was observed
- Ki (IU-nucleoside hydrolase): 0.096 ± 0.007 µM

Compound: Nc1ncnc2c1ncn2C1CC(O)C(CO)O1 (stereo not drawn) [d-Adenosine]
- Substrate or inhibitor concentration (substrate activity limit; nucleoside concentration in parentheses) (nucleoside hydrolase): < 0.0006
- Ki (nucleoside hydrolase; [1]): 3200 µM

Compound: O=c1[nH]cnc2c1ncn2[C@H]1C[C@H](O)[C@@H](CO)O1 [d-Inosine]
- Substrate or inhibitor concentration (substrate activity limit; nucleoside concentration in parentheses) (nucleoside hydrolase): < 0.0003
- Ki (nucleoside hydrolase; [1]): 2300 µM

Compound: O=[N+]([O-])c1ccc(O[C@@H]2O[C@H](CO)[C@@H](O)[C@H]2O)cc1 [nitrophenylribose, reference compound]
- Km (IU-nucleoside hydrolase; compound as substrate): 64 ± 6 µM

Compound: Cytosine
- Km (nucleoside hydrolase): 4700 µM
- Vmax (nucleoside hydrolase): 36 ± 3 µmol/min/mg
- Vmax /Km (nucleoside hydrolase): 4.5 × 10^3 M^-1 S^-1

— patent US6121296A, “Transition-state inhibitors for nucleoside hydrolase and transferase reactions” (Albert Einstein College of Medicine of Yeshiva University, priority 1998, dated 2000)
